From PubChem BioAssay (NCI)
Values joined by “and” are separate entries in the source; they are usually repeats but may differ in a detail not shown here. Equal entries are not always repeated.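 The compound was tested at five concentrations on cells cultured in 96-well plates, with a 48-hour exposure period. GI50 is the concentration that inhibits growth by half. TGI is the concentration that stops growth completely.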

Key:
Assay in all cases: DTP human tumour cell line panel, 48 h
UACC-257 melanoma = system: UACC-257 melanoma
MOLT-4 leukemia = system: MOLT-4 leukemia
OVCAR-4 ovarian = system: OVCAR-4 ovarian
OVCAR-5 ovarian = system: OVCAR-5 ovarian
COLO 205 colon = system: COLO 205 colon
SF-295 CNS = system: SF-295 CNS
KM12 colon = system: KM12 colon
CAKI-1 renal = system: CAKI-1 renal
SNB-75 CNS = system: SNB-75 CNS
UACC-62 melanoma = system: UACC-62 melanoma

SMILES | TGI (UACC-257 melanoma) | TGI (MOLT-4 leukemia) | TGI (OVCAR-4 ovarian) | TGI (OVCAR-5 ovarian) | TGI (COLO 205 colon) | TGI (SF-295 CNS) | TGI (KM12 colon) | TGI (CAKI-1 renal) | TGI (SNB-75 CNS) | TGI (UACC-62 melanoma) | GI50 (UACC-257 melanoma) | GI50 (MOLT-4 leukemia) | GI50 (OVCAR-4 ovarian) | GI50 (OVCAR-5 ovarian) | GI50 (COLO 205 colon) | GI50 (SF-295 CNS) | GI50 (KM12 colon) | GI50 (CAKI-1 renal) | GI50 (SNB-75 CNS) | GI50 (UACC-62 melanoma)
O=C(Cc1nc2ccc(C(=O)c3ccccc3)cc2[nH]c1=O)C(=O)Nc1ccc(C(F)(F)F)cc1[N+](=O)[O-] | > 100 µM | > 100 µM | > 100 µM | > 100 µM | > 100 µM | > 100 µM | > 100 µM | > 100 µM | > 100 µM | > 100 µM | – | – | – | – | – | – | – | – | – | –
COc1ccc(C2=NNC(c3cc(Cc4ccc(O)c(C5CC(c6ccc(OC)cc6)=NN5)c4)ccc3O)C2)cc1 (stereo not given) | > 100 µM | > 100 µM | > 100 µM | 88 µM | > 100 µM | > 100 µM | > 100 µM | > 100 µM | > 100 µM | 99.6 µM | 25.6 µM | 17.8 µM | 5.36 µM | 17.1 µM | 19.4 µM | 21.2 µM | 22.6 µM | 30.2 µM | 4.98 µM | 10.6 µM
CCc1ccc(Oc2nccc(-c3c(-c4ccc(F)cc4)ncn3C3CCNCC3)n2)cc1 | 8.04 µM | 15.8 µM | 13 µM | 15.1 µM | 7.93 µM | 12.1 µM | 14.3 µM | 14.6 µM | 10.7 µM | 9.08 µM | 4.34 µM | 7.15 µM | 5.02 µM | 6.45 µM | 4.24 µM | 5.52 µM | 6.01 µM | 5.5 µM | 3.58 µM | 4.6 µM
Nc1cccc2c1CN(C1CCC(=O)NC1=O)C2=O (stereo not given) | > 100 µM | > 100 µM | > 100 µM | > 100 µM | > 100 µM | > 100 µM | > 100 µM | > 100 µM | > 100 µM | > 100 µM | > 100 µM | > 100 µM | > 100 µM | > 100 µM | > 100 µM | > 100 µM | > 100 µM | > 100 µM | > 100 µM | > 100 µM
CC[C@@]1(OC(=O)C(N)CCC(=O)O)C(=O)OCc2c1cc1n(c2=O)Cc2cc3ccccc3nc2-1 (stereo not given in full) | 1.63 µM | 0.0992 µM | > 20.8 µM | 8.09 µM | 3.03 µM | 0.446 µM | 6.1 µM | 0.235 µM | 1.35 µM | 0.16 µM | – | – | – | – | – | – | – | – | – | –
O=C1c2cccc3cccc(c23)C(=O)N1CC#Cc1ccc2c3c(cccc13)C(=O)N(CCN1CCNCC1)C2=O | 38.1 µM | 5.07 µM | 3.82 µM | 10.3 µM | 12.4 µM | 33.8 µM | 4.6 µM | 10.5 µM | 19.9 µM | 4.44 µM | 18.5 µM | 2.17 µM | 1.93 µM | 2.82 µM | 3.3 µM | 17.5 µM | 2.12 µM | 2.72 µM | 4.49 µM | 1.88 µM
Cc1ccc(SC2C(C)(C)N(C(C)C)P2(=O)N(C(C)C)C(C)C)cc1 (stereo not given) | 67.5 µM | > 59.3 µM | > 100 µM | > 100 µM | > 64.1 µM | > 100 µM | > 100 µM | > 100 µM | > 100 µM | > 100 µM | – | – | – | – | – | – | – | – | – | –
Cc1ccc2c(n1)C(=O)C(Cl)=C(Nc1ccc(N3CCN(C)CC3)cc1)C2=O | 3.11 µM | 5.78 µM | 2.87 µM | 3.34 µM | 3.27 µM | 32.3 µM | 23.5 µM | 3.08 µM | 8.53 µM | 3.12 µM | 1.7 µM | 2.37 µM | 1.5 µM | 1.82 µM | 1.77 µM | 18 µM | 10.2 µM | 1.68 µM | 2.11 µM | 1.71 µM
COc1ccc(Oc2nc(Nc3ccc(N4CCOCC4)cc3)ncc2NC(=O)Nc2cc(OC)cc(OC)c2)cc1 | 23.8 µM | > 33.3 µM | 10.9 µM | > 33.3 µM | 14.7 µM | 12.7 µM | 15.3 µM | 13.5 µM | 18.2 µM | 7.41 µM | 5.47 µM | 10.6 µM | 2.91 µM | 11.6 µM | 5.27 µM | 4.19 µM | 1.82 µM | 4.24 µM | 1.65 µM | 1.99 µM
S=C(Nc1ccc(Cl)cc1)SC1CCCCC1 | 76.5 µM | 92.4 µM | > 100 µM | 62 µM | > 100 µM | 70.5 µM | 95.7 µM | > 100 µM | 74.4 µM | 28.8 µM | – | – | – | – | – | – | – | – | – | –
Oc1[nH]c2ccc(Cl)cc2c1/C=c1/ccc2c(c1)N=C(c1ccc(C(F)(F)F)cc1)N=2 | 4.93 µM | 6.19 µM | 11.4 µM | 12.3 µM | 4.13 µM | 5.04 µM | 7.63 µM | 9.55 µM | 7.51 µM | 4.06 µM | 2.08 µM | 2.41 µM | 2.73 µM | 3.1 µM | 2.1 µM | 1.87 µM | 2.08 µM | 2.74 µM | 2.03 µM | 1.71 µM
COC(=O)c1c2c(c(C)[n+]([O-])c1C)C(=O)C=C(NCc1ccc(Br)cc1)C2=O | 0.907 µM | 3.99 µM | 1.04 µM | 2.83 µM | 1.17 µM | 1.32 µM | 1.81 µM | 1.64 µM | 2.94 µM | 1.09 µM | 0.229 µM | 0.87 µM | 0.181 µM | 1.33 µM | 0.322 µM | 0.242 µM | 0.171 µM | 0.0597 µM | 1.58 µM | 0.0438 µM
O=C(NC1CCNCC1)c1[nH]ncc1NC(=O)c1c(Cl)cccc1Cl | 4.56 µM and > 7.47 µM | 1.49 µM and > 10 µM | 14 µM and > 10 µM | > 100 µM | 0.558 µM and 0.726 µM | > 51.8 µM | 1.66 µM and > 10 µM | > 100 µM | 0.766 µM and 0.674 µM | 3.18 µM and 1.89 µM | 1.42 µM and 1.92 µM | 0.357 µM and 0.329 µM | 0.402 µM and 0.383 µM | 0.348 µM and 0.282 µM | 0.218 µM and 0.182 µM | 1.13 µM and 1.01 µM | 0.297 µM and 0.305 µM | 14.9 µM and 4.09 µM | 0.249 µM and 0.218 µM | 1.33 µM and 0.479 µM
COc1cc2c(cc1OCc1ccccc1)N=C[C@@H]1C[C@@H](F)CN1C2=O | 3 µM | > 100 µM | 27.4 µM | 12.1 µM | 9.64 µM | 1.85 µM | 4.05 µM | 26.1 µM | > 100 µM | 0.369 µM | 0.569 µM | 0.353 µM | 2.31 µM | 0.298 µM | 0.583 µM | 0.678 µM | 1.55 µM | 6.69 µM | 0.894 µM | 0.183 µM
Cc1ccc2nc3sc(=O)sc3nc2c1 | 32.1 µM | 50.1 µM | 26.8 µM | 30.8 µM | 27.8 µM | 31 µM | 28.9 µM | 30 µM | 64.8 µM | 32.5 µM | – | – | – | – | – | – | – | – | – | –
O=S(=O)(CC(O)C(Cl)(Cl)Cl)NNc1ccccc1 (stereo not given) | > 100 µM | > 100 µM | > 100 µM | > 100 µM | > 100 µM | > 100 µM | > 100 µM | > 100 µM | > 100 µM | > 100 µM | – | – | – | – | – | – | – | – | – | –
O=C1NC(=O)C(N2CCc3ccccc32)=C1c1ccc(Cl)cc1 | > 25 µM | > 25 µM | > 25 µM | > 25 µM | > 25 µM | > 25 µM | > 25 µM | > 25 µM | > 25 µM | > 25 µM | > 25 µM | > 25 µM | > 25 µM | > 25 µM | > 25 µM | > 25 µM | > 25 µM | > 25 µM | > 25 µM | 24.8 µM
N#Cc1ccc(N2Cc3cc(Cl)ccc3OC3=C2C(=O)N(Cc2ccc(F)cc2)C3=O)cc1 | 1.15 µM | 1.26 µM | 0.563 µM | 1.93 µM | 3.65 µM | 14.5 µM | 6.59 µM | 0.38 µM | 1.72 µM | 1.13 µM | 0.556 µM | 0.291 µM | 0.206 µM | 0.737 µM | 1.57 µM | 4.65 µM | 1.83 µM | 0.186 µM | 0.558 µM | 0.537 µM
O=S1c2ccccc2N=C(c2ccc3ccccc3c2)CC1c1ccccc1F (stereo not given) | > 100 µM | > 100 µM | > 100 µM | > 100 µM | > 100 µM | > 100 µM | > 100 µM | > 100 µM | 80.8 µM | > 100 µM | – | – | – | – | – | – | – | – | – | –
CCOC(=O)c1c(C(F)(F)F)n([O-])c2ccc(Cl)cc2[n+]1=O | 4.7 µM | 5.18 µM | 5.73 µM | 3.32 µM | 3.29 µM | 2.83 µM | 3.8 µM | 2.87 µM | 5.36 µM | 3.71 µM | 2.19 µM | 2.32 µM | 2.16 µM | 1.76 µM | 1.65 µM | 1.24 µM | 2.07 µM | 1.35 µM | 1.43 µM | 1.72 µM
Cc1ccc(-c2c3c(N)nc(-c4ccncc4)nc3nc3c2c(C)nn3-c2ccccc2)cc1 | > 37.5 µM | > 37.5 µM | 33.3 µM | > 37.5 µM | > 37.5 µM | > 37.5 µM | > 37.5 µM | > 37.5 µM | 15.2 µM | > 37.5 µM | 13.3 µM | > 37.5 µM | 7.44 µM | > 37.5 µM | 35.3 µM | > 37.5 µM | 31.4 µM | > 37.5 µM | 1.64 µM | 13.8 µM
